These results are taken from publication PMC6152156 (Molecules : A Journal of Synthetic Chemistry and Natural …, 2017).

Assay [1] addresses T1, AChE (Rattus norvegicus, UniProt P37136).
T1 construct: AChE was derived from the SD rat brains by homogenizing the brain with 20-fold saline solution; from tissue; host or cells: SD rat brain homogenate (supernatant after 800 x g)
As to the kind of experiment: In vitro AChE inhibitory assay (Ellman's method). The class given is biochemical. As to conditions: AChE from SD rat brain homogenate; ASCh substrate; 60 min, 37 °C; read-out: IC50(μM) AChE. As to the method: The AChE inhibitory activity of DL0410 derivatives was assessed by determining the hydrolysis product of Acetylthiocholine iodide (ASCh) using the Ellman’s method. 5,5′-Dithiobis (2-nitrobenzoic acid) (DTNB), and the substrate ASCh were purchased from Sigma Aldrich. AChE was derived from the SD rat brains by homogenizing the brain with 20-fold saline solution, and then centrifuged at 800× g for 20 min at 4 °C. To acquire the inhibition of AChE activity, five serial dilutions of samples were measured. A Spectra Max M5 microplate reader (Molecular Devices, Sunnyvale, CA, USA) was utilized for the assay for AChE reaction system with 96-well plates in 0.05 M phosphate-buffered solution (PBS). The reaction system includes 10 μL sample, 20 μL AChE solution, 60 μL 3.75 mM ASCh, and 80 μL 0.25 mg/mL DTNB. It took 60 min at 37 °C for incubation, and the absorbance intensity of AChE reaction system was quantified at 412 nm.
For orientation: DTNB colorimetry detects thiols as they appear.

Assay [2] deals with T2, BuChE (Homo sapiens, UniProt P06276).
T2 construct: BuChE was obtained from human plasma (purchased from Beijing Red Cross Blood Center China); tissue Beijing Red Cross Blood Center China; host or cells: human plasma, diluted 200-fold with 0.05 M PBS
T2 sequence (P06276 29-602): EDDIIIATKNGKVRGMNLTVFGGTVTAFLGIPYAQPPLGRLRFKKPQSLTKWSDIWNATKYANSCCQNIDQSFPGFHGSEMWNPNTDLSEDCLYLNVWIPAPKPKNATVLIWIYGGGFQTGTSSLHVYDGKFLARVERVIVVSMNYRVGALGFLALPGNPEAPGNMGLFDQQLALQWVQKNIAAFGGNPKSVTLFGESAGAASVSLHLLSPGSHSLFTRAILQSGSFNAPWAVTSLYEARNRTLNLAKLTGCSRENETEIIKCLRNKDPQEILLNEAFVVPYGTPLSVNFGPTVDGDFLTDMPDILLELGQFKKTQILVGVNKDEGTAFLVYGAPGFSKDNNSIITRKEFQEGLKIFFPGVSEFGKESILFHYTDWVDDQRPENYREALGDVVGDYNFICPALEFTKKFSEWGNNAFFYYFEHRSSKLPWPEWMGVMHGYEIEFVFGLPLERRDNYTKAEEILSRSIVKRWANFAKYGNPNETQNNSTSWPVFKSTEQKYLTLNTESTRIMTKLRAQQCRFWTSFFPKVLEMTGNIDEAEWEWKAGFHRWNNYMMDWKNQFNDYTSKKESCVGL
As to the kind of experiment: In vitro BuChE inhibitory assay (Ellman-type, human plasma). The conditions noted are these: BuChE from human plasma; BuSCh substrate; 60 min, 37 °C; read-out: IC50(μM) BuChE. Type of assay: biochemical. As to the method:
BuChE was obtained from human plasma (purchased from Beijing Red Cross Blood Center China). Before utilization, human plasma was diluted 200-fold with 0.05 M PBS. Five serial dilutions of samples are determined to obtain BuChE inhibitory activity. The BuChE reaction system is similar to the assay above, including 10 μL samples, 40 μL diluted plasma sample, 70 μL 7.5 mM S-butyrylthiocholine (BuSCh), and 80 μL 0.25 mg/mL DTNB. After incubation at 37 °C for 60 min, the absorbance intensity of the system was measured at wavelength 412 nm.

In assay [3] the target is T1, AChE. In words: AChE kinetic study (Lineweaver-Burk and Dixon plots). The class given is biochemical. As to conditions: for Ki: Dixon plot, inhibitor 0.1, 0.3, 1 μM, substrate 1.25-20 mM, n = 3; for type of inhibition of AChE: Lineweaver-Burk plot. As to the method:
(§1) To have an insight into how structure modification affected the inhibitory activities, molecular docking and kinetics studies were performed for DL0410, compounds 6-1 and 7-6. After the docking parameters were set, the crystal poses of donepezil and N-((1-benzylpiperidin-3-yl)methyl)-N-(2-methoxyethyl) naphthalene-2-sulfonamide were first re-docked into the binding site pocket of AChE and BuChE, respectively. Donepezil is a mixed-type inhibitor of AChE used in the palliative treatment of AD [25]. N-((1-benzylpiperidin-3-yl)methyl)-N-(2-methoxyethyl) naphthalene-2-sulfonamide is a potent, selective, and reversible human BuChE inhibitor, which can improve memory, cognitive functions, and learning abilities. The root mean square deviation (RMSD) values between the docking and initial poses were 0.872 and 1.253, respectively, which implied that the docking models built by CDOCKER could reproduce the crystal binding model and were suitable for the AChE and BuChE system. DL0410 and two highly inhibitory compounds (compounds 6-1 and 7-6) were docked to the active pockets of AChE and BuChE. For AChE, these three compounds could dock to TRP86 of CAS via π-Alkyl interaction or electrostatic attraction, near the bottom of the active site gorge, and TRP286 of PAS via π-π stacking interaction, near its entrance (Figure 4). The value of –CDOCKER INTERACTION ENERGY was followed by compound 6-1 > compound 7-6 > DL0410. The dibenzofuran of compound 6-1 formed stronger π-π stacking interaction with TYR341 and TRP286, and the carbonyl formed hydrogen bond with TYR72. In addition, hydrogen bond interaction of compound 7-6 made it high inhibition for AChE. […] There existed more hydrogen bonds for compound 7-6, and a highly electronegative fluorine atom caused its strong interaction with GLY116. Therefore, the fluorine atom substitution and the structure of dibenzofuran made compounds 6-1 and 7-6 different from DL0410. Compound 7-6 formed more hydrogen bonds with AChE and BuChE. The structure of dibenzofuran caused the extension direction of compound 6-1 to change, which was more conducive to forming electrostatic attractive interactions. In silico results were consistent with the kinetics studies of AChE and BuChE. […] The inhibition kinetic data were analyzed by Lineweaver-Burk and Dixon plots. The Lineweaver-Burk plot provides a useful means of distinguishing among competitive inhibition, non-competitive inhibition, and mixed inhibition, whereas the merit of the Dixon plot is that one can expediently determine Ki from the kinetic data. […] The results of the kinetics studies also validated that the three compounds were, indeed, capable of binding to CAS and PAS of AChE/BuChE. The PAS site could […] their catalytic efficiency, which led to high inhibitory effects.
(§2) Figure 6 The Lineweaver-Burk plots of DL0410, compound 6-1 and compound 7-6 on AChE inhibitory activity (A–C). The Lineweaver-Burk plots of DL0410, compound 6-1 and compound 7-6 on BuChE inhibitory activity (D–F). Kinetic analysis of AChE and BuChE was performed by using three effective concentrations of DL0410, compound 6-1 and compound 7-6 (0.1, 0.3, 1 μM for AChE, and 0.3, 1, 3 μM for BuChE) with the incubation of five different substrate concentrations (1.25, 2.5, 5, 10, 20 mM for AChE, and 2, 4, 8, 16, 32 mM for BuChE). […] (n = 3; a = mM^−1; b = min/ΔA).
(§3) Figure 7 Ki values were determined by Dixon plots. […] Figure D–F presented the Dixon plots of DL0410, compound 6-1 and compound 7-6 on BuChE inhibitory activity, respectively. […] (n = 3; b = min/ΔA).
(§4) It is important to determinate the type of inhibition in an effort to understand the mechanism of inhibition and the binding sites of the inhibitor sites. […]

Assay [4] addresses T2, BuChE. In words: BuChE kinetic study (Lineweaver-Burk and Dixon plots). Type of assay: biochemical. As to conditions: for Ki: Dixon plot, inhibitor 0.3, 1, 3 μM, five substrate concentrations, n = 3; for type of inhibition of BuChE: Lineweaver-Burk plot. As to the method:
as §1, §2, §3, §4

Assay [5] relates to APPsw-SY5Y cells. The conditions noted are these: Akt/JNK signaling pathway; cited from earlier work.
Assay [6] concerns Aβ-treated mice. More on the design: method as in PMID 27498773. As to conditions: Aβ-treated mice model; cited from earlier work.
The test system of assay [7] is APP/PS1 transgenic mice. More on the design: method as in PMID 26476132. As to conditions: cited from earlier work.

T1 sequence (P37136 32-614): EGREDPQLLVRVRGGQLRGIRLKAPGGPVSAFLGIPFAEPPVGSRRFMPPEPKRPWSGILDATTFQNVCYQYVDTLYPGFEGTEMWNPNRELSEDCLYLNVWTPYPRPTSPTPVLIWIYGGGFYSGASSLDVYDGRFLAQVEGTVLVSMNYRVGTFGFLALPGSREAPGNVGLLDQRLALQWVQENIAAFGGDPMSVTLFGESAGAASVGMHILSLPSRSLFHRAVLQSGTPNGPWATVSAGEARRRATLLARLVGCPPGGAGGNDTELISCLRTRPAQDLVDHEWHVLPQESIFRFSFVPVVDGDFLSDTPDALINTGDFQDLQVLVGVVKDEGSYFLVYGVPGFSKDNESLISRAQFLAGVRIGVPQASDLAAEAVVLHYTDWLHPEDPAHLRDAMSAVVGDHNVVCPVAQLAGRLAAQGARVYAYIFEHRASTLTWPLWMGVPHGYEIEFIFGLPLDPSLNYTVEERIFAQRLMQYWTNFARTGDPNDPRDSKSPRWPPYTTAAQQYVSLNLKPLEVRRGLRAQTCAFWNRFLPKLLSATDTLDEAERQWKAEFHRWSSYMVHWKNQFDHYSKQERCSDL

Take `O=C(CCN1CCCCC1)c1ccc(-c2ccc(C(=O)CCN3CCCCC3)cc2F)cc1` [Compound 7-6]: the IC50 (as a rule, the concentration at which inhibition is half-maximal) in assay [1] was 0.03 µM; in assay [2] it was 0.44 µM. The Ki (usually the dissociation constant of the complex between target and ligand, obtained from inhibition or displacement) in assay [3] worked out at 550 ± 200 nM; in assay [4], 1630 ± 180 nM. Moreover, in assay [3], the “type of inhibition of AChE” value is listed as “mixed-type”. The “type of inhibition of BuChE” value in assay [4] was “mixed-type”.
`O=C(CCN1CCCCC1)c1ccc(-c2ccc(C(=O)CCN3CCCCC3)cc2)cc1` [Compound 1-1]: in assay [3], the Ki is 1650 ± 140 nM and the “type of inhibition of AChE” value is “mixed-type”. Further, in assay [4], the inhibitory constant (Ki) was 1810 ± 80 nM and the “type of inhibition of BuChE” value is “mixed-type”. Also, the neuronal protection entry in assay [5] is reported as “exerted neuronal protection”. In addition, the “Aβ deposits in cerebral cortices” value in assay [6] is recorded as “reduced Aβ deposits in cerebral cortices”. Moreover, the “learning and memory dysfunction” value in assay [7] is “improved learning and memory dysfunction”.
As for `O=C(CCN1CCCCC1)c1ccc2oc3ccc(C(=O)CCN4CCCCC4)cc3c2c1` [Compound 6-1], the IC50 in assay [1] was determined as 0.06 µM. Moreover, in assay [2], the IC50 is 0.61 µM. In assay [3], the affinity corresponds to a Ki of 420 ± 40 nM and the “type of inhibition of AChE” value is “mixed-type”. Also, in assay [4], affinity was put at a Ki of 740 ± 160 nM and the “type of inhibition of BuChE” value is listed as “mixed-type”.
